Measured values published in US20260265195A1, “SARM1 MODULATORS, PREPARATIONS, AND USES THEREOF” (SIRONAX LTD, priority 2022, published 2026).

target: T1, SARM1 (50-724) (Homo sapiens, UniProt Q6SZW1); test: SARM1 (50-724) enzymatic assay (NMN-activated NAD+ hydrolysis, LC-MS/MS readout); format: biochemical; settings: purified SARM1 (50-724) 2 nM, 200 μM NMN activator, 100 μM NAD+ substrate, 1 h at room temperature, read-out: IC50 (SARM1 inhibitory activity)
T1 construct: Purified SARM1 (50-724) with a final concentration of 2 nM
T1 sequence (Q6SZW1 50-724): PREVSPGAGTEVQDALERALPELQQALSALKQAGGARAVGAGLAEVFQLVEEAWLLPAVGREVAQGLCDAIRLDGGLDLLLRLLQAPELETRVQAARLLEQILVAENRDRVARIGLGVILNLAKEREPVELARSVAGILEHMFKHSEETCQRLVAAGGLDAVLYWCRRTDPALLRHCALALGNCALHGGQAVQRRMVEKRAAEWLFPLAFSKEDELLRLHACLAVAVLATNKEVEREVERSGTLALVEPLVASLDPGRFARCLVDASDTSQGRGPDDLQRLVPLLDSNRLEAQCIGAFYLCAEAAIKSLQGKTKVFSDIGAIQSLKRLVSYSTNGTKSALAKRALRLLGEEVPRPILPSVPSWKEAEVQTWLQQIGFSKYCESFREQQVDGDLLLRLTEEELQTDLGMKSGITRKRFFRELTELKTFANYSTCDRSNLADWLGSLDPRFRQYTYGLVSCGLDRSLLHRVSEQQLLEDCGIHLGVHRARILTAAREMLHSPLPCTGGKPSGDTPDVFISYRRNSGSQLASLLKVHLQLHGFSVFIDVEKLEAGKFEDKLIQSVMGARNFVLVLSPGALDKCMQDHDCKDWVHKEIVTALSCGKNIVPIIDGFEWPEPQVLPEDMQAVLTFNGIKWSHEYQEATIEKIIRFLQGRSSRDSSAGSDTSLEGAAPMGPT
How it was run: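 Purified human SARM1 (50-724), 2 nM final in DPBS, pre-incubated 15 min at RT with compound (1% DMSO), then started with 200 μM NMN activator and 100 μM NAD+. After 1 h at RT, quenched with 70% acetonitrile; analysed by LC-MS/MS.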

Structure (SMILES) | IC50
CN(C(=O)c1nc2ccccc2[nH]1)C1CCCC1 [Compound 51, N-cyclopentyl-N-methyl-1H-benzo[d]imidazole-2-carboxamide] | ≥ 1000 nM
O=C(c1nc2cc(Cl)cc(F)c2[nH]1)N(CC(F)(F)CO)c1cccc(F)c1Cl [Compound 232, 5-chloro-N-(2-chloro-3-fluorophenyl)-N-(2,2-difluoro-3-hydroxypropyl)-7-fluoro-1H-benzo[d]imidazole-2-carboxamide] | ≤ 100 nM
O=C(c1nc2cc(C(F)(F)F)ccc2[nH]1)N(CC(F)(F)CO)c1cccc(F)c1Cl [Compound 185, N-(2-chloro-3-fluorophenyl)-N-(2,2-difluoro-3-hydroxypropyl)-5-(trifluoromethyl)-1H-benzo[d]imidazole-2-carboxamide] | ≤ 100 nM
CN(C(=O)c1nc2c([nH]1)C(=O)CCC2)C1CCCC1 [Compound 61, N-cyclopentyl-N-methyl-7-oxo-4,5,6,7-tetrahydro-1H-benzo[d]imidazole-2-carboxamide] | ≥ 1000 nM
Cc1ccc2[nH]c(C(=O)N(CCO)c3cccc(Cl)c3Cl)nc2c1Br [Compound 160] | ≤ 100 nM
Cc1ccc2[nH]c(C(=O)N(C)C3CCCC3)c(CNc3cc(C)[nH]n3)c2c1 [Compound 83, N-cyclopentyl-N,5-dimethyl-3-(((5-methyl-1H-pyrazol-3-yl)amino)methyl)-1H-indole-2-carboxamide] | 101 to 500 nM

More lines, now with the values ahead:

IC50 | Structure (SMILES)
≥ 1000 nM | Cc1ccc2[nH]c(C(=O)N(C)C3CCNCC3)c(CNc3ccccn3)c2c1 [Compound 84, N,5-dimethyl-N-(piperidin-4-yl)-3-((pyridin-2-ylamino)methyl)-1H-indole-2-carboxamide]
101 to 500 nM | Cc1ccc2[nH]c(C(=O)N(C)C3CCCC3)c(C#N)c2c1 [Compound 70, 3-cyano-N-cyclopentyl-N,5-dimethyl-1H-indole-2-carboxamide]
≤ 100 nM | Cn1nc(N(CCO)C(=O)c2nc3cc(C(F)(F)F)ccc3[nH]2)c(Cl)c1Cl [Compound 110, N-(4,5-dichloro-1-methyl-1H-pyrazol-3-yl)-N-(2-hydroxyethyl)-5-(trifluoromethyl)-1H-benzo[d]imidazole-2-carboxamide]
≥ 1000 nM | Cc1ccc2[nH]c(C(=O)N(C)c3ccc(C#N)cc3)c(CO)c2c1 [Compound 3, N-(4-cyanophenyl)-3-(hydroxymethyl)-N,5-dimethyl-1H-indole-2-carboxamide]
101 to 500 nM | Cc1ccc2[nH]c(C(=O)N(C)C3CCCCC3)c(CNc3ccccn3)c2c1 [Compound 91, N-cyclohexyl-N,5-dimethyl-3-((pyridin-2-ylamino)methyl)-1H-indole-2-carboxamide]
≥ 1000 nM | CN(C(=O)c1cc2ccccc2[nH]1)C1CCCC1 [Compound 54, N-cyclopentyl-N-methyl-1H-indole-2-carboxamide]
101 to 500 nM | O=C(c1nc2cc(Cl)cc(Cl)c2[nH]1)N(CC(F)(F)CO)c1cccc(F)c1Cl [Compound 235]
